Assay results as given in patent publication US20250281480A1, “PHARMACEUTICAL DRY POWDER INHALATION FORMULATION” (Bayer Aktiengesellschaft, priority 2021, published 2025).

Columns and labels:
[1] = system: acetylcholine [ACh] rat model; experiment: Acetylcholine [ACh] rat model, bronchodilation; settings: in vivo
[2] = system: anesthetized PAH minipigs; experiment: PAH minipig, intratracheal application of dry powder formulations and of different hydrates (PAP, BP); assay type: in vivo, Göttingen Minipigs; settings: dry powder lactose formulation, i.t.
Protocol: Healthy Göttingen Minipigs® Ellegaard (Ellegaard, Denmark) of both sexes and having a weight of 2-6 kg were used. The animals were sedated by i.m. administration of about 25 mg/kg ketamine and about 10 mg/kg azaperone. Anaesthesia was initiated by i.v. administration of about 2 mg/kg ketamine and about 0.3 mg/kg midazolam. Maintenance of anaesthesia was by i.v. administration of about 7.5-30 mg/kg/h ketamine and about 1-4 mg/kg/h midazolam (rate of infusion 1-4 ml/kg/h) and about 150 μg/kg/h pancuronium bromide (for example Pancuronium-Actavis). After intubation, the animals were ventilated by the ventilator at a constant respiratory volume (10-12 ml/kg, 35 breaths/min; Avea®, Viasys Healthcare, USA, or Engström Carestation, GE Healthcare, Freiburg, Germany) such that an end-tidal CO2 concentration of about 5% was achieved. Ventilation was performed with room air, enriched with about 40% oxygen (normoxia). For the measurement of the haemodynamic parameters such as pulmonary arterial pressure (PAP), blood pressure (BP) and heart rate (HR), catheters were inserted into the carotid artery to measure the blood pressure, and a Swan-Ganz® catheter was introduced in a flow-directed manner via the jugular vein into the pulmonary artery. The haemodynamic signals were recorded and evaluated by means of pressure transducers (Combitransducer, B. Braun, Melsungen, Germany)/amplifiers and Ponemah® as data acquisition software.
About 0.3-0.75 μg/kg/min of 9,11-didesoxy-9α,11α-epoxymethanoprostaglandine F2α (U-44069; Sigma, cat. no. D0400, or Cayman Chemical Company, cat. no. 16440), dissolved in physiological saline, were infused to achieve an increase of the mean pulmonary arterial pressure to values of over 25 mmHg.
After characterization of the effects of comparative example 11 after nebulization of compound solutions, in a further step the effects of crystalline forms of comparative example 11, e.g. sesquihydrate, e.g. example 6e on PAP and BP after inhaled application of different dry powder lactose formulations (table 52) were studied in anesthetized PAH minipigs.
As reference pure Lactose vehicle was applied in the beginning of each experiment.

[3] = system: unilateral ventilated minipig; experiment: Unilateral ventilated minipig model as a proxy of VQ-mismatch; assay type: in vivo; settings: inhaled application

In the case of `O=C(O)c1ccc(CCN(CCc2ccccc2OCc2ccc(-c3ccc(C(F)(F)F)cc3)cc2Cl)[C@H]2CCCc3nc(C(=O)O)ccc32)cc1` [Comparative example 11, (5S)-5-{[2-(4-carboxyphenyl)ethyl][2-(2-{[3-chloro-4′-(trifluoromethyl)[biphenyl]-4-yl]methoxy}phenyl)ethyl]amino}-5,6,7,8-tetrahydroquinoline-2-carboxylic Acid], the effect on ventilation [1] is reported as “bronchodilatory effect”, the MED [2] is reported as < 7.5 µg/kg and the “effect on PAP and oxygenation” value [3] is reported as “lowered PAP without negative effects on oxygenation”.
